Results taken from PubChem BioAssay AID1918955 (Molecular Pharmacology Branch, DTP, NCI, 2023).
pIC50: −log10 of the molar value.

Test system: NCI/ADR-RES complex spheroid viability
Test: Anticancer human tumor NCI/ADR-RES cell line growth inhibition;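 further: spheroids exposed to compounds for 7 days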;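 on viability, T/C: 100% = DMSO vehicle treated spheroids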
Conditions: for pIC50: curve of first compound; for viability, T/C: stronger effect = lower value
How it was run: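 Multicellular complex spheroids of tumor cells with human endothelial cells (HUVEC) and mesenchymal stem cells; the LSD1 inhibitor iadademstat was combined with standard-of-care or investigational agents. Top concentration at or near clinical Cmax, half-log dilutions; final DMSO ≤0.25%.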

[1] = second compound 0.1 µM, first compound 0.0316 µM
[2] = second compound 0.1 µM, first compound 0.1 µM
[3] = second compound 0.1 µM, first compound 0.316 µM
[4] = second compound 0.1 µM, first compound 1 µM
[5] = second compound 0.1 µM, first compound 3.16 µM
[6] = second compound 0.1 µM, first compound 10 µM
[7] = second compound 0.316 µM, first compound 0.0316 µM
[8] = second compound 0.316 µM, first compound 0.1 µM
[9] = second compound 0.316 µM, first compound 0.316 µM
[10] = second compound 0.316 µM, first compound 1 µM
[11] = second compound 0.316 µM, first compound 3.16 µM
[12] = second compound 0.316 µM, first compound 10 µM
[13] = second compound 1 µM, first compound 0.0316 µM
[14] = second compound 1 µM, first compound 0.1 µM
[15] = second compound 1 µM, first compound 0.316 µM
[16] = second compound 1 µM, first compound 1 µM
[17] = second compound 1 µM, first compound 3.16 µM
[18] = second compound 1 µM, first compound 10 µM
[19] = second compound 3.16 µM, first compound 0.0316 µM
[20] = second compound 3.16 µM, first compound 0.1 µM
[21] = second compound 3.16 µM, first compound 0.316 µM
[22] = second compound 3.16 µM, first compound 1 µM
[23] = second compound 3.16 µM, first compound 3.16 µM
[24] = second compound 3.16 µM, first compound 10 µM
[25] = second compound 10 µM, first compound 0.0316 µM
[26] = second compound 10 µM, first compound 0.1 µM
[27] = second compound 10 µM, first compound 0.316 µM
[28] = second compound 10 µM, first compound 1 µM
[29] = second compound 10 µM, first compound 3.16 µM
[30] = second compound 10 µM, first compound 10 µM

**Q.** With `CC1(C)CCC(CN2CCN(c3ccc(C(=O)NS(=O)(=O)c4ccc(NCC5CCOCC5)c([N+](=O)[O-])c4)c(Oc4cnc5[nH]ccc5c4)c3)CC2)=C(c2ccc(Cl)cc2)C1` + NC1CCC(NC2CC2c2ccccc2)CC1 as the compound, how does the pIC50 (second compound 0.1 µM) read?
**A.** Its pIC50 is < 5.00.

**Q.** What about the pIC50 (second compound 0.316 µM) of the same compound?
**A.** Its pIC50 is < 5.00.

**Q.** What about the pIC50 (second compound 1 µM) of the same compound?
**A.** Its pIC50 is < 5.00.

**Q.** What about the pIC50 (second compound 3.16 µM) of the same compound?
**A.** Its pIC50 is < 5.00.

**Q.** And the pIC50 (second compound 10 µM)?
**A.** Its pIC50 is < 5.00.

**Q.** What about the viability, T/C [1] of the same compound?
**A.** Its viability, T/C is 98.7%.

**Q.** What about the viability, T/C [2] of the same compound?
**A.** The viability, T/C was 101%.

**Q.** What about the viability, T/C [3] of the same compound?
**A.** Its viability, T/C is 93.5%.

**Q.** What about the viability, T/C [4] of the same compound?
**A.** Its viability, T/C is 103%.

**Q.** What about the viability, T/C [5] of the same compound?
**A.** The viability, T/C was 96.8%.

**Q.** What about the viability, T/C [6] of the same compound?
**A.** The viability, T/C was 91.3%.

**Q.** And the viability, T/C [7]?
**A.** Its viability, T/C is 91.8%.

**Q.** What about the viability, T/C [8] of the same compound?
**A.** Its viability, T/C is 103%.

**Q.** What about the viability, T/C [9] of the same compound?
**A.** The viability, T/C was 99.2%.

**Q.** And the viability, T/C [10]?
**A.** The viability, T/C was 104%.

**Q.** And the viability, T/C [11]?
**A.** The viability, T/C was 103%.

**Q.** And the viability, T/C [12]?
**A.** Its viability, T/C is 100%.

**Q.** What about the viability, T/C [13] of the same compound?
**A.** Its viability, T/C is 97.2%.

**Q.** And the viability, T/C [14]?
**A.** Its viability, T/C is 108%.

**Q.** And the viability, T/C [15]?
**A.** The viability, T/C was 102%.

**Q.** What about the viability, T/C [16] of the same compound?
**A.** The viability, T/C was 114%.

**Q.** What about the viability, T/C [17] of the same compound?
**A.** The viability, T/C was 102%.

**Q.** What about the viability, T/C [18] of the same compound?
**A.** Its viability, T/C is 100%.

**Q.** What about the viability, T/C [19] of the same compound?
**A.** The viability, T/C was 99.6%.

**Q.** And the viability, T/C [20]?
**A.** Its viability, T/C is 104%.

**Q.** And the viability, T/C [21]?
**A.** Its viability, T/C is 101%.

**Q.** And the viability, T/C [22]?
**A.** The viability, T/C was 104%.

**Q.** And the viability, T/C [23]?
**A.** Its viability, T/C is 96.3%.

**Q.** What about the viability, T/C [24] of the same compound?
**A.** Its viability, T/C is 89.9%.

**Q.** And the viability, T/C [25]?
**A.** The viability, T/C was 84.5%.

**Q.** And the viability, T/C [26]?
**A.** Its viability, T/C is 90%.

**Q.** What about the viability, T/C [27] of the same compound?
**A.** The viability, T/C was 105%.

**Q.** What about the viability, T/C [28] of the same compound?
**A.** Its viability, T/C is 94.5%.

**Q.** What about the viability, T/C [29] of the same compound?
**A.** Its viability, T/C is 94.3%.

**Q.** And the viability, T/C [30]?
**A.** Its viability, T/C is 85.4%.

**Q.** What does the source list for `CC1COCCN1c1cc(C2(S(C)(=N)=O)CC2)nc(-c2ccnc3[nH]ccc23)n1` (stereo not given) + NC1CCC(NC2CC2c2ccccc2)CC1?
**A.** pIC50 (second compound 0.1 µM): < 5.00; pIC50 (second compound 0.316 µM): < 5.00; pIC50 (second compound 1 µM): 5.07; pIC50 (second compound 3.16 µM): 5.10; pIC50 (second compound 10 µM): 5.28; viability, T/C [1]: 98.9%; viability, T/C [2]: 104%; viability, T/C [3]: 105%; viability, T/C [4]: 95.6%; viability, T/C [5]: 82.8%; viability, T/C [6]: 50.5%; viability, T/C [7]: 101%; viability, T/C [8]: 98.8%; viability, T/C [9]: 102%; viability, T/C [10]: 94.5%; viability, T/C [11]: 71.8%; viability, T/C [12]: 55.5%; viability, T/C [13]: 104%; viability, T/C [14]: 102%; viability, T/C [15]: 97.6%; viability, T/C [16]: 97.5%; viability, T/C [17]: 84.5%; viability, T/C [18]: 44.2%; viability, T/C [19]: 96.4%; viability, T/C [20]: 96.8%; viability, T/C [21]: 94.6%; viability, T/C [22]: 84.4%; viability, T/C [23]: 68.6%; viability, T/C [24]: 45%; viability, T/C [25]: 98.4%; viability, T/C [26]: 92.7%; viability, T/C [27]: 89.7%; viability, T/C [28]: 83.8%; viability, T/C [29]: 61.3%; viability, T/C [30]: 34.6%
